Data from EP0477871A2, “Antiviral composition, containing guanine derivatives” (NIPPON KAYAKU KABUSHIKI KAISHA, priority 1990, dated 1992).
Where two headings read alike, the source gives them in different places. Each block holds one molecule with its values, some of them ahead of it.

What was measured:
HSV-1 (VR-3) = experiment: Plaque inhibition (growth inhibition) in vero cell monolayer, HSV-1; type: cell-based, herpes simplex virus 1 (HSV-1); settings: for IC50: Human alphaherpesvirus 1, Vero, compound alone, read-out: Concentraten at 50% plaque inhibition (IC50), single compound
Protocol: (§1) A monolayer culture of Cercopithecus sabaeus renal cells (vero cells) was prepared in Eagle's minimum medium containing 10% of newborn calf serum (MEM-CS10) by using a 24-well microplate. Then the medium was inoculated with 50 PFU/0.1 ml/well of herpes simplex virus 1 (HSV-1) or 2 (HSV-2). After effecting adsorption at 37°C for 1 hour, the cells in each well were washed with a phosphate buffer solution (PBS). Next, 0.5% methylcellulose-containing MEM-CS2 containing stepwise diluted OXT-G, ACV or C-OXT-G alone, a combination of OXT-G and ACV, a combination of OXT-G and C-OXT-G or a combination of ACV and C-OXT-G was laminated thereon and incubated at 37°C for 2 days. After discarding the laminated medium and fixing the cells with […], the cells were stained with a Crystal Purple solution and plaques formed in each well were counted. Then the ratio (%) of the plaque count at each concentration to that of the control lot, to which no chemical was added, was determined to thereby give the 50% plaque inhibition concentration (IC₅₀). Thus the inhibitory rate (%) against the concentration of each compound was calculated.

HSV-2 (VW-268) = experiment: Plaque inhibition (growth inhibition) in vero cell monolayer, HSV-2; type: cell-based, herpes simplex virus 2 (HSV-2); settings: for IC50: Human alphaherpesvirus 2, Vero, compound alone, read-out: Concentraten at 50% plaque inhibition (IC50), single compound
Protocol: as §1

IC50 (HSV-1 (VR-3); OXT-G/ACV series): 7 µg/mL
IC50 (HSV-1 (VR-3); OXT-G/C-OXT-G series): 7.3 µg/mL
IC50 (HSV-2 (VW-268); OXT-G/ACV series): 10 µg/mL
Compound: Nc1nc2c(ncn2[C@@H]2O[C@H](CO)[C@H]2CO)c(=O)[nH]1 [OXT-G, 9-(2-deoxy-2-hydroxymethyl-β-D-erythrooxetanosyl)guanine]
OXT-G inhibitory rate (single compound at the same concn., theoretical) (HSV-1 (VR-3); OXT-G alone 0.1 μg/mℓ): (1%)
OXT-G inhibitory rate (single compound at the same concn., theoretical) (HSV-1 (VR-3); OXT-G alone 0.4 μg/mℓ): (3%)
OXT-G inhibitory rate (single compound at the same concn., theoretical) (HSV-1 (VR-3); OXT-G alone 1.0 μg/mℓ): (7%)
OXT-G inhibitory rate (single compound at the same concn., theoretical) (HSV-1 (VR-3); OXT-G alone 1.7 μg/mℓ): (12%)
OXT-G inhibitory rate (single compound at the same concn., theoretical) (HSV-1 (VR-3); OXT-G alone 3.0 μg/mℓ): (26%)
OXT-G inhibitory rate (single compound at the same concn., theoretical) (HSV-1 (VR-3); OXT-G alone 4.0 μg/mℓ): (29%)
OXT-G inhibitory rate (single compound at the same concn., theoretical) (HSV-1 (VR-3); OXT-G alone 5.4 μg/mℓ): (39%)
OXT-G inhibitory rate (HSV-1 (VR-3); OXT-G alone 7.0 μg/mℓ): 50%
OXT-G inhibitory rate (HSV-1 (VR-3); OXT-G alone 7.3 μg/mℓ): 50%
OXT-G inhibitory rate (single compound at the same concn., theoretical) (HSV-2 (VW-268); OXT-G alone 0.4 μg/mℓ): (2%)
OXT-G inhibitory rate (single compound at the same concn., theoretical) (HSV-2 (VW-268); OXT-G alone 1.0 μg/mℓ): (5%)
OXT-G inhibitory rate (single compound at the same concn., theoretical) (HSV-2 (VW-268); OXT-G alone 4.0 μg/mℓ): (20%)
OXT-G inhibitory rate (HSV-2 (VW-268); OXT-G alone 10.0 μg/mℓ): (50%)

Compound: Nc1nc2c(ncn2COCCO)c(=O)[nH]1 [ACV, 9-(2-hydroxyethoxymethyl)guanine, reference compound]
ACV inhibitory rate (single compound at the same concn., theoretical) (HSV-1 (VR-3); ACV alone 0.04 μg/mℓ): (2%)
ACV inhibitory rate (single compound at the same concn., theoretical) (HSV-1 (VR-3); ACV alone 0.08 μg/mℓ): (3%)
ACV inhibitin rate (single compound at the same concn., theoretical) (HSV-1 (VR-3); ACV alone 0.1 μg/mℓ): (6%)
ACV inhibitory rate (single compound at the same concn., theoretical) (HSV-1 (VR-3); ACV alone 0.32 μg/mℓ): (12%)
ACV inhibitory rate (single compound at the same concn., theoretical) (HSV-1 (VR-3); ACV alone 0.42 μg/mℓ): (15%)
ACV inhibitin rate (single compound at the same concn., theoretical) (HSV-1 (VR-3); ACV alone 0.58 μg/mℓ): (37%)
ACV inhibitin rate (HSV-1 (VR-3); ACV alone 0.78 μg/mℓ): 50%
ACV inhibitory rate (HSV-1 (VR-3); ACV alone 1.4 μg/mℓ): 50%
IC50 (HSV-1 (VR-3); C-OXT-G/ACV series): 0.78 µg/mL
IC50 (HSV-1 (VR-3); OXT-G/ACV series): 1.4 µg/mL
ACV inhibitory rate (single compound at the same concn., theoretical) (HSV-2 (VW-268); ACV alone 0.1 μg/mℓ): (2%)
ACV inhibitory rate (single compound at the same concn., theoretical) (HSV-2 (VW-268); ACV alone 0.4 μg/mℓ): (8%)
ACV inhibitory rate (single compound at the same concn., theoretical) (HSV-2 (VW-268); ACV alone 1.3 μg/mℓ): (19%)
ACV inhibitory rate (single compound at the same concn., theoretical) (HSV-2 (VW-268); ACV alone 1.5 μg/mℓ): (30%)
ACV inhibitory rate (single compound at the same concn., theoretical) (HSV-2 (VW-268); ACV alone 1.8 μg/mℓ): (36%)
ACV inhibitory rate (single compound at the same concn., theoretical) (HSV-2 (VW-268); ACV alone 1.9 μg/mℓ): (28%)
ACV inhibitory rate (HSV-2 (VW-268); ACV alone 2.5 μg/mℓ): 50%
ACV inhibitory rate (single compound at the same concn., theoretical) (HSV-2 (VW-268); ACV alone 2.7 μg/mℓ): (40%)
ACV inhibitory rate (HSV-2 (VW-268); ACV alone 3.4 μg/mℓ): 50%
IC50 (HSV-2 (VW-268); C-OXT-G/ACV series): 2.5 µg/mL
IC50 (HSV-2 (VW-268); OXT-G/ACV series): 3.4 µg/mL

IC50 (HSV-1 (VR-3); C-OXT-G/ACV series): 0.3 µg/mL
IC50 (HSV-1 (VR-3); OXT-G/C-OXT-G series): 0.6 µg/mL
IC50 (HSV-2 (VW-268); C-OXT-G/ACV series): 0.74 µg/mL
Compound: Nc1nc2c(ncn2[C@@H]2C[C@H](CO)[C@H]2CO)c(=O)[nH]1 [C-OXT-G, (+)-9-[(1R,2R,3S)-2,3-bis(hydroxymethyl)cyclobutyl]guanine]
C-OXT-G inhibitory rate (single compound at the same concn., theoretical) (HSV-1 (VR-3); C-OXT-G alone 0.01 μg/mℓ): (2%)
C-OXT-G inhibitory rate (single compound at the same concn., theoretical) (HSV-1 (VR-3); C-OXT-G alone 0.04 μg/mℓ): (3%)
C-OXT-G inhibitory rate (single compound at the same concn., theoretical) (HSV-1 (VR-3); C-OXT-G alone 0.1 μg/mℓ): (8%)
C-OXT-G inhibitory rate (single compound at the same concn., theoretical) (HSV-1 (VR-3); C-OXT-G alone 0.2 μg/mℓ): (33%)
C-OXT-G inhibitory rate (HSV-1 (VR-3); C-OXT-G alone 0.3 μg/mℓ): 50%
C-OXT-G inhibitory rate (single compound at the same concn., theoretical) (HSV-1 (VR-3); C-OXT-G alone 0.4 μg/mℓ): (33.3%)
C-OXT-G inhibitory rate (HSV-1 (VR-3); C-OXT-G alone 0.60 μg/mℓ): 50%
C-OXT-G inhibitory rate (single compound at the same concn., theoretical) (HSV-2 (VW-268); C-OXT-G alone 0.04 μg/mℓ): (3%)
C-OXT-G inhibitory rate (single compound at the same concn., theoretical) (HSV-2 (VW-268); C-OXT-G alone 0.1 μg/mℓ): (7%)
C-OXT-G inhibitory rate (single compound at the same concn., theoretical) (HSV-2 (VW-268); C-OXT-G alone 0.3 μg/mℓ): (20%)
C-OXT-G inhibitory rate (single compound at the same concn., theoretical) (HSV-2 (VW-268); C-OXT-G alone 0.54 μg/mℓ): (36%)
C-OXT-G inhibitory rate (HSV-2 (VW-268); C-OXT-G alone 0.74 μg/mℓ): 50%
